Measurements: patent US20260315434A1, “USE OF GUAIACOL SESQUITERPENE LACTONE DERIVATIVES” (NANJING UNIVERSITY OF CHINESE MEDICINE, priority 2023, published 2026)

Key:
[1] = test system: renal injury markers (Kim-1, Ngal) in kidney tissue; test: Diabetic nephropathy, renal injury marker mRNA; format: in vivo, C57/BL6J mice; conditions: 8 weeks
Experimental: Experimental animals: C57/BL6J mice, male, 12 weeks old, purchased from GemPharmatech LLC. Production license number: SCXK(Su)2023-0009. […] Animals were acclimated for 7 days before use in experiments.
Administer streptozotocin (STZ, 50 mg/kg) via intraperitoneal injection for 5 consecutive days. After 72 hours, select mice with fasting blood glucose levels exceeding 16.7 mmol/L as model mice. […] Model mice were fed a high-fat diet (HFD) providing 60% of energy from fat for 8 weeks. After 8 weeks, gavage administration commenced.
Specimen Collection: One hour after the last drug administration, enucleate the eyeball to collect blood. Allow blood to stand at room temperature for 2 hours, then centrifuge at 3000 rpm for 20 minutes. Aspirate the serum, aliquot it, and store at −70° C. for future use. After blood collection, euthanize the mice by cervical dislocation. Open the abdominal cavity, remove the kidneys, and dissect away the perirenal fat and capsule. Store the tissue at −70° C. for future use.

Hepa1-6 cells = test: Antitumor efficacy combined with anti-PD-L1 monoclonal antibody, Hepa1-6 xenograft; format: in vivo, C57BL/6 mice; conditions: for combination with anti-PD-L1 monoclonal antibody vs. single agents, Hepa1-6: 1 mg/kg/day i.p., 2 weeks, result in words
Experimental: Hepa1-6 cells were cultured and expanded in vitro. An appropriate number of cells in the logarithmic growth phase was resuspended in a mixture of serum-free DMEM medium and Matrigel (1:1). Under sterile conditions, prepare a cell suspension at 2.5×10^6 cells/100 μL. Using a syringe, inject 100 μL of the cell suspension subcutaneously into the left forelimb axilla of male C57BL/6 mice. […] Compounds 20 and 103 were administered via intraperitoneal injection daily, while anti-PD-L1 monoclonal antibody was administered intraperitoneally every three days for a total of two weeks. During the treatment period, mouse body weight and tumor diameter were measured daily. At the end of the experiment, mice were euthanized by cervical dislocation, and tumors were removed and weighed. Tumor volume (TV) was calculated using the formula: TV=½×a×b^2, where a represents the longest diameter of the tumor and b represents the shortest diameter.

[2] = test system: inflammatory cytokines (TNF, IL-6, IL-1) in lung tissue; test: LPS-induced sepsis, lung inflammatory factor mRNA (Q-PCR); conditions: for Il1 mRNA expression, lung: LPS 19.01; for Il6 mRNA expression, lung: LPS 20.34; for Tnf mRNA expression, lung: Normal = 1.00, LPS 10.92
Text: They were acclimated for 7 days before experimentation.
The normal and model groups received equal volumes of solvent (0.5% CMC-Na) via oral gavage.
Specimen Collection: One hour after the final drug administration, mice were euthanized by cervical dislocation. The abdominal cavity was opened, and the lungs, liver, and kidneys were removed. These organs were rinsed twice with pre-chilled PBS. Tissue samples were excised from the mouse lungs, left hepatic lobe, and kidneys. […] Remaining tissues were stored at −70° C. for future use.
Accurately weigh 20 mg of kidney, lung, and liver tissue. Rinse with pre-chilled PBS solution, cut into small pieces using ophthalmic scissors, and place into a glass homogenizer. Add 1 mL of Trizol reagent and grind to prepare tissue homogenate. Transfer the homogenate to a RNAse-free 1.5 mL EP tube and lyse on ice for 10 min. Add 200 μL chloroform, vortex vigorously, and let stand on ice for 3-5 min. Centrifuge at 12,000 rpm and 4° C. for 15 min. Carefully transfer the supernatant to a new RNAse-free 1.5 mL EP tube. Add an equal volume of pre-chilled isopropanol, incubate on ice for 30 min, then centrifuge at 12,000 rpm and 4° C. for 10 min. Discard the supernatant. […] Subsequently, dissolve the pellet in 10 μL DEPC-treated water. Dilute 1 μL of the total RNA solution 100-fold and measure the OD values at 260 nm and 280 nm using a full-wavelength microplate reader.
Following the method described in the kit manual, subsequent experiments were conducted using a 20 μL reverse transcription reaction system:
Primers were designed based on the nucleotide sequence of the mouse in GenBank and synthesized.
Perform subsequent experiments using a 20 μL reaction system according to the kit instructions:
After adding the above reagents to micro reaction tubes, seal them with the cap and place them in the Q-PCR instrument. Set the parameters according to the following reaction conditions to perform the amplification experiment.
Record the threshold cycle (Ct) values for each group and perform calculation and analysis using the 2^−ΔΔCt method (setting the expression level of the reference gene Gapdh as 1 to correct the expression levels of the target genes).
Data Statistics: All data are presented as Means±S.E.M. Analysis of variance (ANOVA) was performed to assess the significance of differences. Groups showing significant differences in ANOVA were further compared using one-way ANOVA and Dunnett's test. A P-value <0.05 was considered statistically significant.

[3] = test system: inflammatory factors (TNF, IL-6, IL-1) in renal tissue; test: Lupus nephritis, renal inflammatory factor mRNA; format: in vivo, MRL/lpr mice; conditions: 8 weeks
Experimental: Experimental animals: MRI/MpJ and MRL/lpr mice, female, 10 weeks old, purchased from GemPharmatech LLC. Production license number: SCXK(Su)2023-0009. […] They were acclimated for 7 days before use in experiments.
Oral administration was performed continuously for 8 weeks.
Allow blood to stand at room temperature for 2 hours, then centrifuge at 3000 rpm for 20 minutes. Aspirate the serum, aliquot it, and store at −70° C. for future use. After blood collection, euthanize mice by cervical dislocation. Open the abdominal cavity, remove kidneys, and dissect out perirenal fat and capsules. […] Store remaining tissues at −70° C. for future use.

H22 cells = test: Antitumor efficacy combined with anti-PD-L1 monoclonal antibody, H22 xenograft; format: in vivo, Balb/c mice; conditions: 2 weeks; for combination with anti-PD-L1 monoclonal antibody vs. single agents, H22: 2.5 mg/kg/day i.p., result in words; for Tumor inhibition rate (%) / Tumor weight: dose 2.5 (head μmol/kg/day; text 2.5 mg/kg/day), i.p. daily, H22
Experimental: H22 cells were cultured and expanded in vitro. An appropriate number of cells in the logarithmic growth phase was resuspended in a mixture of serum-free RPMI 1640 medium and Matrigel (1:1). Under aseptic conditions, prepare a2×10^6/100 μL cell suspension. Using a syringe, inject 100 μL of the cell suspension subcutaneously into the left forelimb axilla of male Balb/c mice. […] Compounds 20 and 103 were administered daily via intraperitoneal injection, while anti-PD-L1 monoclonal antibody was administered every three days via intraperitoneal injection for a 2-week treatment period. During the treatment period, mouse body weight and tumor diameter were measured daily. At the end of the experiment, mice were euthanized by cervical dislocation, and tumors were removed and weighed. Tumor volume (TV) was calculated using the formula: TV=½×a×b^2, where a represents the longest diameter of the tumor and b represents the shortest diameter.

[4] = test system: serum creatinine and blood urea nitrogen; test: Folic acid-induced acute kidney injury, serum creatinine and urea; format: in vivo, C57BL/6 mice; set-up: unit not given here; conditions: folic acid acute model
Experimental: Except for the normal group, all other mice were administered folic acid (250 mg/kg) dissolved in 0.9% NaHCO3 solution via intraperitoneal injection to establish an acute kidney injury model.
The blood was allowed to stand at room temperature for 2 hours, then centrifuged at 3000 rpm for 20 minutes. Serum was aspirated, aliquoted, and stored at −70° C. for future use. Following blood collection, euthanize mice by cervical dislocation. Perform laparotomy to remove kidneys, dissect out perirenal fat and capsules. […] Paraffin-embedded specimens undergo HE staining; remaining tissue is stored at −70° C. for future use.
Serum Creatinine (Scr) and Blood Urea Nitrogen (BUN) Level Assay: 10 μL of serum from each sample was used for creatinine and urea level detection. Samples were added sequentially strictly following the kit instructions. After incubation at 37° C., absorbance values were measured using an enzyme-linked immunosorbent assay (ELISA) reader. The concentration levels of each indicator were calculated based on the standard curve.

[5] = dose 1 (head μmol/kg/day; text 1 mg/kg/day), i.p. daily, two weeks, Hepa1-6

SMILES	Kim-1 mRNA expression, kidney ([1]; 1 mg/kg gavage)	Ngal mRNA expression, kidney ([1]; 1 mg/kg gavage)	Kim-1 mRNA expression, kidney ([1]; 10 mg/kg gavage)	Ngal mRNA expression, kidney ([1]; 10 mg/kg gavage)	combination with anti-PD-L1 monoclonal antibody vs. single agents, Hepa1-6 (Hepa1-6 cells)	Il1 mRNA expression, lung ([2]; 1 mg/kg oral)	Il6 mRNA expression, lung ([2]; 1 mg/kg oral)	Tnf mRNA expression, lung ([2]; 1 mg/kg oral)	Il1 mRNA expression, kidney ([3]; 30 mg/kg oral)	Il6 mRNA expression, kidney ([3]; 30 mg/kg oral)	Tnf mRNA expression, kidney ([3]; 30 mg/kg oral)	combination with anti-PD-L1 monoclonal antibody vs. single agents, H22 (H22 cells)	Tumor inhibition rate (%) (H22 cells)	Tumor weight (H22 cells) [g]	BUN ([4]; 0.1 mg/kg oral)	Scr (serum creatinine) ([4]; 0.1 mg/kg oral)	BUN ([4]; 1 mg/kg oral)	other results
CN(C)C[C@@H]1C(=O)O[C@H]2[C@H]1CC[C@@]1(C)C[C@]13CC[C@@](C)(O)[C@H]23 [Compound 20]	1.68 ± 0.17	1.38 ± 0.17	0.64 ± 0.10	0.96 ± 0.13	synergistic effect	5.22 ± 0.90	7.16 ± 0.71	6.52 ± 0.29	6.01 ± 0.99	11.80 ± 1.90	4.04 ± 0.33	synergistic effect	48.67	0.64 ± 0.09	–	–	–	tumor inhibition rate, combination (Hepa1-6 cells; 1 mg/kg/d i.p. combined with anti-PD-L1 monoclonal antibody (5 mg/kg/d)): 96.99%
CN(C)C[C@@H]1C(=O)O[C@H]2[C@H]1CC[C@@]1(C)C[C@]13CC[C@@](C)(O)[C@H]23 [Compound 21]	–	–	–	–	–	6.79 ± 0.72	9.10 ± 1.20	8.67 ± 1.51	–	–	–	–	–	–	30.08 ± 3.03	90.69 ± 12.83	18.95 ± 2.58	Il1 mRNA expression, lung ([2]; 0.1 mg/kg oral): 13.30 ± 0.88; Il6 mRNA expression, lung ([2]; 0.1 mg/kg oral): 18.40 ± 3.16; Tnf mRNA expression, lung ([2]; 0.1 mg/kg oral): 8.79 ± 1.18; Scr (serum creatinine) ([4]; 1 mg/kg oral, 1 mg/kg): 50.39 ± 7.65
CC1=C2CC[C@@](C)(OC(=O)N3CCCC3)[C@@H]2[C@H]2OC(=O)[C@@H](CN3CCCC3)[C@@H]2CC1 [Compound 103]	0.98 ± 0.41	2.34 ± 0.39	0.75 ± 0.24	2.08 ± 0.34	synergistic effect	–	–	–	4.11 ± 0.41	1.83 ± 0.91	4.10 ± 0.67	synergistic effect	41.90	0.70 ± 0.08	23.42 ± 13.11	74.95 ± 21.37	20.38 ± 10.82	Tumor inhibition rate (%) (Hepa1-6 cells; [5]): 62.26%; Tumor weight (Hepa1-6 cells; [5]): 0.16 ± 0.05 g; Il1 mRNA expression, kidney ([3]; 10 mg/kg, oral): 6.78 ± 0.96; Il6 mRNA expression, kidney ([3]; 10 mg/kg, oral): 2.47 ± 0.53; Tnf mRNA expression, kidney ([3]; 10 mg/kg, oral): 7.24 ± 3.10; Scr (serum creatinine) ([4]; 1 mg/kg oral): 73.88 ± 14.26; BUN ([4]; 10 mg/kg oral): 17.72 ± 7.78; Scr (serum creatinine) ([4]; 10 mg/kg oral): 45.19 ± 7.41
